Laboratory results as given in patent publication US20040242679A1, “Methods and compositions for potentiating cancer chemotherapeutic agents” (priority 2002, published 2004).

Columns and labels:
[1] = system: SK-Hep-1, a liver adenocarcinoma (hepatoma); test: Cell Proliferation ELISA, BudR (colorimetric), hepatoma cells; format: cell-based, human; details: for suppression of hepatoma proliferation, adjuvant combined with ADR: adjuvant 0.5 mM AA equivalents, one application of ADR, two of adjuvant, prominent at ADR 0.003-0.03 micromolar; for inhibition of hepatoma proliferation, single agent: ADR 0.02-0.33 micromoles, furanone 0.001-0.01% compared at same absolute concentration
Source text: (§1) Calcium ascorbate (CA), calcium threonate (CT), 4-hydroxy-5-methyl-3(2H)-furanone (FR) and Ester-C (EC) are obtained from Inter-Cal Corporation, Prescott, Ariz., USA. Tissue culture grade Ascorbic acid (AA) is from Sigma Chemical Company, St. Louis, Mo., USA. The composition of calcium ascorbate (calcium di-(L-ascorbate) dihydrate) is made by sequentially dissolving the salt in sterile water to obtain master-stock solutions of equal strength (1% w/v). Aqueous solution of calcium ascorbate plus calcium threonate plus 4-hydroxy-5-methyl-3(2H)-furanone (CA/CT/FR) is prepared at ratio of 85/7.5/7.5. For comparative analysis, stock solutions containing identical ascorbic acid (AA) equivalents are used. All master stocks are stored at room temperature during the course of these procedures. From these, 10× strength working stocks are prepared by serial dilution on the day of use and are applied to cells in microtiter plates as described below.
Adriamycin (doxorubicin) is obtained from Sigma Chemical Company (St. Louis, Mo.). Stock solutions are made by dissolving adriamycin (ADR) in sterile water and DTIC in water or dilute acetic acid solution (0.01N). Stocks are stored frozen at −10 C. and thawed prior to use. Serial dilutions are made in sterile water to obtain 10× strength solutions and one tenth volume of this is applied to cells at the time of treatment.
Target human tumor-derived lines consist of SK-Hep-1, a liver adenocarcinoma ([…]) and Malme-3M, a malignant melanoma. All seed cultures are obtained from ATCC, Manassas, Va., USA and are propagated/maintained in serum-containing growth medium in a humidified incubator of 5% CO2/95% air. SK-Hep-1 cells are grown in Eagle's minimum essential medium (EMEM) in Earle's salts plus non-essential amino acids supplemented with 10% FBS plus antibiotics and Malme-3M cells are cultured in McCoy's medium supplemented with 15% fetal bovine serum (FBS) plus antibiotics.
For treatment, exponentially growing cells are seeded at a density of 1×10^4 cells per well of 96-well microtiter plate in 0.1-0.2 ml of growth medium. After overnight cell attachment at 37 C., duplicate wells are exposed to various treatments by direct application of one-tenth volume of 10× strength solution. For treatments involving chemotherapeutic agent, one-tenth volume of serial dilutions of adriamycin (0.0006-3.0 micromolar) are applied to wells followed by application of ascorbate-containing composition (adjuvant) or sterile water (control). The adjuvant treatment is repeated every other day or on the third day (as applicable) without change of growth medium. Untreated controls receive an equivalent amount of sterile water. After 2-3 treatments with adjuvant, cells are labeled with BudR as described below. (In some experiments, wells are refed an equal volume of growth medium prior to additional of BudR. This gives a higher amount of BrdU incorporation into DNA relative to no refluiding).
For DNA labeling, the following procedure is adapted and modified from the Cell Proliferation ELISA, BudR (Colorimetric) assay of Roche Diagnostics, Indianapolis, Ind., USA: Each treated well is exposed to one-tenth volume of 10× BrdU-containing medium and reincubated at 37 C. overnight (15-20 hrs.). One set of control wells is exposed to medium only (no BudR) to obtain an absorbance-control (substrate only) blank for the assay. After the labeling period, the culture medium is removed and the cells are fixed and DNA denatured in one step by adding FixDenat (30 min at RT). Then, FixDenat is removed, the anti-BrdU-peroxidase reagent is added and incubation continues for 90 min at RT. After removal of the latter, the plate is washed 3 times, followed by addition of substrate solution. The plate is kept at RT until color development became sufficient for photometric detection ([…]). At this time, reaction is stopped by addition to each well of 25 microliter 1M sulfuric acid followed by mixing for approximately 1 min on the shaker. […]

colon carcinoma (T84) = test: Cell death detection ELISA, colon carcinoma cells; format: cell-based, human; details: up to a max. of 0.01% furanone
Protocol: (§2) Four human tumor cell types, shown previously to be sensitive to combinations of mineral ascorbate plus metabolites are evaluated. These lines consist of: (i) a liver hepatoma (SK-Hep-1), (ii) a malignant melanoma (Malme-3M), (iii) a neurobastoma (SK-N-MC) and (iv) a colon carcinoma (T84). Non-malignant cell types consist of: normal human liver (WRL 68), normal skin fibroblasts (Malme-3) and normal retinal epithelial cells (ARPE-19). The tumor-derived lines, normal liver and skin fibroblasts are obtained from the American Type Culture Collection (ATCC). The ARPE-19 cell line is a gift from a colleague at California Institute for Medical Research. Cells are grown and maintained in culture, in a humidified incubator of 5% CO2/95% air. […]
(§3) Subconfluent monolayers of 1-2 old, adherent cultures (seeded at a density of 10,000 cells per well in a 96-well plate) are exposed to 0.1 volume of serial dilutions (10× concentrated solutions) of the furanone and the plate is returned to the incubator. […] The supernatant (cytoplasmic lysate) is saved and in aliquot (20 microliters) was assayed for the presence of histone-DNA complexes (nucleosomal fragments) by photometric detection (absorbance at 405-410 nm) using cell death detection Elisa assay (Roche Diagnostics).

[2] = system: normal skin fibroblasts (Malme-3); test: Cell death detection ELISA, normal skin fibroblasts; format: cell-based, human; details: two furanone preparations
Protocol: as §2, §3

[3] = system: Malme-3M, a malignant melanoma; test: Cell Proliferation ELISA, BudR (colorimetric), melanoma cells; format: cell-based, human; details: furanone at 0.1% as printed; FIG. 21
Source text: as §1, with “below. […]” for “below.”
For DNA labeling, the following procedure is adapted and modified from the Cell Proliferation ELISA, BudR (Colorimetric) assay of Roche Diagnostics, Indianapolis, Ind., USA: Each treated well is exposed to one-tenth volume of 10× BrdU-containing medium and reincubated at 37 C. overnight (15-20 hrs.). One set of control wells is exposed to medium only (no BudR) to obtain an absorbance-control (substrate only) blank for the assay. […]

[4] = system: normal human liver (WRL 68); test: Cell death detection ELISA (histone-DNA complexes), normal liver cells; format: cell-based; details: 0.01-0.0001% furanone, three sequential treatments
Protocol: as §2, §3

[5] = system: normal retinal epithelial cells (ARPE-19); test: Cell death detection ELISA, normal retinal epithelial cells; format: cell-based, human; details: up to max of 0.003% furanone
Protocol: as §2, §3

[6] = system: liver hepatoma (SK-Hep-1); test: Cell death detection ELISA, hepatoma cells; format: cell-based, human
Protocol: as §2, §3

neurobastoma (SK-N-MC) = test: Cell death detection ELISA, neuroblastoma cells; format: cell-based, human; details: up to max of 0.001% furanone
Protocol: as §2, §3

[7] = system: malignant melanoma (Malme-3M); test: Cell death detection ELISA, melanoma cells; format: cell-based, human
Protocol: as §2, §3

O=C1O[C@H]([C@@H](O)CO)C(O)=C1O [AA, Ascorbic acid, reference compound] was tested, and the “suppression of hepatoma proliferation, adjuvant combined with ADR” value (“suppression of hepatoma proliferation” below) [1] was “greater suppression of hepatoma proliferation than ADR alone”.

In the case of COc1cccc2c1C(=O)c1c(O)c3c(c(O)c1C2=O)C[C@@](O)(C(=O)CO)C[C@@H]3O[C@H]1C[C@H](N)[C@H](O)[C@H](C)O1 [ADR, Adriamycin (doxorubicin), reference compound], the “inhibition of hepatoma proliferation, single agent” value [1] is reported as “dose-dependent inhibition of hepatoma proliferation”.

CC1=C(O)C(=O)CO1 [furanone, 4-hydroxy-5-methyl-3(2H)-furanone] was tested, and the “reduction in cellular DNA synthesis compared to untreated control” value ([1]; 0.01% furanone alone) was ~4.6 fold, the “enhancement of the inhibitory effect of ADR” value ([1]; ADR 0.007 micromolar, adjuvant 0.01%) was 7 fold and the “inhibition of hepatoma proliferation, single agent” value [1] was “more effective in inhibiting hepatoma proliferation than either the triple ascorbate/metabolite mix or Ester-C®”. The “minimal dose of furanone required to produce 2-fold enhancement of ADR inhibition” value ([1]; two independent experiments) was ~0.0016%, the “change in rate of cellular apoptosis over untreated control” value (colon carcinoma (T84)) was < 0.5 log and the increase in apoptosis [2] was < 0.3 log. The “enhancement of the inhibitory effect of ADR in melanoma cells” value [3] was “consistently enhances the inhibitory effect of ADR at all concentrations of the chemotherapeutic drug”, the “maximal change in cell-death rate” value [4] was “less than 0.3 logs” and the “change in death rates” value [5] was “does not elicit significant changes in death rates”. For the same compound, the “cell death in hepatoma cells” value ([6]; furanone 0.001-0.01% (0.08-0.88 mM), three sequential treatments) was “sharp rises in cell death”, the “minimal concentration required to produce 2-fold change in apoptosis rate” value ([6]; hepatoma cells) was < 0.001% and the “change in death rates” value (neurobastoma (SK-N-MC)) was “does not elicit significant changes in death rates”. The “minimal concentration required to produce 2-fold change in apoptosis rate” value [7] was 0.003%.

calcium di-(L-ascorbate) dihydrate was tested, and the “improvement of anti-proliferation activity of ADR” value ([1]; 0.033% adjuvant, low doses of ADR) was “consistently improve the anti-proliferation activity of low doses of ADR”, the “suppression of hepatoma proliferation” value ([1]; dihydrate) was “greater suppression of hepatoma proliferation than ADR alone” and the “suppression of hepatoma proliferation” value ([1]; listed as Calcium ascorbate, dihydrate) was “more effective than ascorbic acid”.
